Here are results for 4 molecules from patent US20210236541A1, “IODOPHOR COMPOSITION WITH IMPROVED STABILITY IN THE PRESENCE OF ORGANIC MATERIAL” (priority 2014, published 2021).

A value given as a limit tells only on which side of the number the result lay.

What all share (assay type): cell-based
Assay [1] concerns E. coli ATCC 25922. Put plainly: MIC micro-broth dilution. A general note: In broth dilution the organism is exposed to a series of concentrations in liquid medium.
In assay [2] the test system is bacterial cells.
The test system of assay [3] is P. aeruginosa. Description: Nebulisation simulation, kill efficiency on inoculated bandage. The conditions noted are these: 1 mL nebulised, 15 minutes exposure, FIG. 6.
Assay [4] deals with E. coli ATCC 25922. The assay is described as above. The note with it: for performance of the novel iodophor relative to the labelled antibiotic: nebulised, 15 minutes, Levofloxacin and Polymyxin B at all concentrations, Gentamycin 0.1 mg and 1 mg.

For the molecule polyvinylpyrrolidone iodine [PVP-I], in assay [1] (in lysogeny broth (LB), text of b30), the MIC was determined as 500 µg/mL. Moreover, the “minimum inhibitory concentration (MIC)” value in assay [1] (in water) was below 1 µg/mL. Moreover, the MBC value in assay [1] (organic rich growth medium (such as lysogeny broth)) is above 500 µg/mL.
On to `OO` [Hydrogen peroxide], for which the “recovery of viable bacterial cells” value in assay [2] is given as “recovery of viable cells”. In addition, the killing efficiency entry was “limited killing efficiency” in assay [3] and “limited killing efficiency” in assay [4] (1 mL nebulised, 15 minutes exposure, FIG. 5).
Regarding Gentamycin, the “performance of the novel iodophor relative to the labelled antibiotic” value in assay [4] is given as “superior”.
Regarding Polymyxin B, in assay [4], the “performance of the novel iodophor relative to the labelled antibiotic” value is “equivalent performance”.

For orientation: MIC means the lowest concentration that inhibits growth of the organism.
